Test results taken from patent publication US4068003A, “Method of medical treatment of myasthenia” (priority 1976, dated 1978).

What was measured:
[1] = Acute toxicity test, single high dose, mice; type: in vivo, mice of ICR-JCL strain; conditions: for Maximum dose (no case of deaths): single dose, 7 days observation
Description: (§1) In order to evaluate the acute toxicity of a single high dose administration of Coenzyme Q10, male and female rats of Wistar strain and male and female mice of ICR-JCL strain were used, and oral, intramuscular, subcutaneous, and intravenous administrations were studied. For the oral administration of Coenzyme Q10, gum Arabic suspension was used. For the intramuscular, subcutaneous and intravenous administrations, Coenzyme Q10 was used as a solution containing a nonionic surfactant, Nikkol HCO-60. Nikkol HCO-60 is a trade mark of a non-ionic surfactant comprised of hydrogenated castor oil/polyoxyethylene-60 mole ether available from Nikko Chemicals, Co. Ltd., Japan.
(§2) Observation was carried out for 7 days by using six males and six females for each dose group.

[2] = Acute toxicity test, single high dose, rats; type: in vivo, rats of Wistar strain; conditions: for Maximum dose (no case of deaths): single dose, 7 days observation
Description: as §1, §2

[3] = Chronic oral toxicity test (26 weeks); type: in vivo, rats of Wistar strain
Method: Coenzyme Q10 was compulsorily and orally administered to each group consisting of 10 male rats and 10 female rats of Wistar strain for consecutive 26 weeks in a ratio of 6 days a week. The dose was 6, 60 and 600 mg/Kg/day, respectively. Coenzyme Q10 was used in the form of gum Arabic suspension, whereas the solution containing gum Arabic alone is used as the control group. Collection of blood and urine samples and autopsies were carried out 26 weeks after the administration.

[4] = Clinical test in myasthenia gravis, case [III] (person); type: in vivo, human
Description: (§3) The effects of the present invention for the treatment of myasthenia gravis will be shown with reference to the results of clinical tests.
The patient was attacked by myasthenia. At the first medical examination, only eyelid drooping (eye fissure: left 5 mm, right 2 mm) was observed.

Teratogenesis test, mice = type: in vivo; conditions: mice, 6, 60, 600 mg/Kg/day
[5] = Subacute oral toxicity test in rats (5 weeks); type: in vivo, rats of Wistar strain
Method: (§4) Coenzyme Q10 was compulsorily and orally administered every day for 5 weeks to each group consisting of 10 male rats and 10 female rats of Wistar strain. The dose was 40, 200, and 1000 mg/Kg/day, respectively. Coenzyme Q10 was used in the form of gum Arabic suspension, while the solution containing gum Arabic alone was used as the control group. Collection of blood and urine samples and autopsies were carried out 5 weeks after the initiation of administration.

[6] = Clinical test in myasthenia gravis, case [I] (person); type: in vivo, human
Method: as §3
They were attacked with myasthenia. […] Ambenonium is a cholinesterase inhibitor and available, for example, under the trademark Myterase. One year before the first medical examination in this hospital, they took 20 mg/day of Ambenonium.
At the first medical examination, drooping of the left eyelid, disorder in the movement of the left eyeball and fatiguing of the limbs were observed. […] The administration according to the recipe was continued for 30 days and, thereafter, dosage of Ambenonium was reduced to 10 mg/day (morning and evening: 5 mg each). This treatment was continued for a further period of 30 days.

Teratogenesis test, rats = type: in vivo; conditions: rats, 6, 60, 600 mg/Kg/day
[7] = Overall result of acute, subacute, chronic toxicity and teratogenesis tests; type: in vivo
Description: as §1, §4
Coenzyme Q10 was compulsorily and orally administered every day for 23 days to each group consisting of 6 male rabbits and 5 female rabbits. The dose was 6, 60 and 600 mg/Kg/day, respectively. […]

[8] = Clinical test in myasthenia gravis, case [II] (person); type: in vivo, human
Method: as §3
Thereafter, they took 20-25 mg/day of Ambenonium perorally intermittently.
At the first medical examination, eye symptoms such as eyelid drooping and double vision and evervation in limbs were remarkable. As for the walking ability, they barely walked 100 m even when the effect of Ambenonium was exerted.
By peroral administration of 25 mg/day of Ambenonium and 30 mg/day of Coenzyme Q10, muscular contraction was caused 2-3 days after the start of the treatment. Dosage of Ambenonium was reduced to 20 mg/day. After the treatment was continued according to this recipe for one week, the heavy feeling of the body, double vision and the eye symptoms were relieved. Continuous 400 m walking was made possible.

[9] = Subacute oral toxicity test in rabbits (23 days); type: in vivo
Method: Coenzyme Q10 was compulsorily and orally administered every day for 23 days to each group consisting of 6 male rabbits and 5 female rabbits. The dose was 6, 60 and 600 mg/Kg/day, respectively. Coenzyme Q10 was used in the form of gum Arabic suspension, whereas the solution containing gum Arabic alone was used as the control group. On the 24th day, blood samples were collected from all the animals, and 3 males and 2 females from each group were then selectively autopsied.

[10] = all routes, maximum doses of Table 1
[11] = any administration group, 7 days
[12] = at the maximum dose in each administration route
[13] = intramuscular, Nikkol HCO-60 solution
[14] = intravenous, Nikkol HCO-60 solution
[15] = subcutaneous, Nikkol HCO-60 solution
[16] = group not stated, spontaneous pneumonia and aspiration pneumonia due to erroneous administration
[17] = rats, 6, 60, 600 mg/Kg/day oral, 26 weeks, vs control group
[18] = Coenzyme Q10 30 mg/day peroral in combination with Distigmine Bromide
[19] = rats, 40, 200, 1000 mg/Kg/day oral, 5 weeks
[20] = Coenzyme Q10 30 mg/day, Ambenonium reduced to 20 mg/day, one week
[21] = rabbits, 6, 60, 600 mg/Kg/day oral, 23 days

**Q.** For COC1=C(OC)C(=O)C(C/C=C(\C)CC/C=C(\C)CC/C=C(\C)CC/C=C(\C)CC/C=C(\C)CC/C=C(\C)CC/C=C(\C)CC/C=C(\C)CC/C=C(\C)CCC=C(C)C)=C(C)C1=O [Coenzyme Q10], which “toxicity (acute)” value [1] is on record?
**A.** extremely low

**Q.** What about the LD50 [1, 10] of the same molecule?
**A.** far higher than the maximum dose mentioned above

**Q.** What about the “general condition, body weight, food intake and autopsy findings” value [1, 11] of the same molecule?
**A.** no change

**Q.** And the deaths [1, 12]?
**A.** no case of deaths

**Q.** What about the “Maximum dose (no case of deaths)” value [1, 13] of the same molecule?
**A.** 500 mg/kg

**Q.** What about the “Maximum dose (no case of deaths)” value [1, 14] of the same molecule?
**A.** 250 mg/kg

**Q.** What about the “Maximum dose (no case of deaths)” value ([1]; oral, gum Arabic suspension) of the same molecule?
**A.** 4000 mg/kg

**Q.** What about the “Maximum dose (no case of deaths)” value [1, 15] of the same molecule?
**A.** 500 mg/kg

**Q.** What about the “toxicity (acute)” value [2] of the same molecule?
**A.** extremely low

**Q.** What about the LD50 [2, 10] of the same molecule?
**A.** far higher than the maximum dose mentioned above

**Q.** And the “general condition, body weight, food intake and autopsy findings” value [2, 11]?
**A.** no change

**Q.** And the deaths [2, 12]?
**A.** no case of deaths

**Q.** And the “Maximum dose (no case of deaths)” value [2, 13]?
**A.** 500 mg/kg

**Q.** And the “Maximum dose (no case of deaths)” value [2, 14]?
**A.** 250 mg/kg

**Q.** What about the “Maximum dose (no case of deaths)” value ([2]; oral, gum Arabic suspension) of the same molecule?
**A.** 4000 mg/kg

**Q.** What about the “Maximum dose (no case of deaths)” value [2, 15] of the same molecule?
**A.** 500 mg/kg

**Q.** And the “deaths, females” value [3, 16]?
**A.** 3 females

**Q.** What about the “deaths, males” value [3, 16] of the same molecule?
**A.** 11 males

**Q.** What about the “macroscopical and histological observation” value ([3]; hemoxylin.Eosine staining and liver fat staining, 26 weeks, vs control group) of the same molecule?
**A.** abnormalities were not recognized

**Q.** What about the body weight [3, 17] of the same molecule?
**A.** increased the same as that of the control group

**Q.** And the general condition [3, 17]?
**A.** no difference

**Q.** What about the “toxicity (chronic oral)” value ([3]; rats, 26 weeks) of the same molecule?
**A.** no toxicity was observed

**Q.** What about the weights of organs ([3]; rats, 26 weeks) of the same molecule?
**A.** no significant increase and decrease

**Q.** And the “biochemical tests of blood and urine” value ([3]; rats, 26 weeks, vs control group)?
**A.** No significant changes

**Q.** And the “leukocytal percentages (hematological findings)” value ([3]; rats, 26 weeks, some increase and decrease, not dose-related)?
**A.** within the range of physiological fluctuations

**Q.** And the “ascending and descending stairs” value [4, 18]?
**A.** could ascend and descend stairs easily

**Q.** And the “need for the dropping lotion” value [4, 18]?
**A.** became unnecessary

**Q.** And the “opening of the eyelids” value [4, 18]?
**A.** improve and to stabilize the opening of the eyelids

**Q.** And the “walking straight looking ahead” value ([4]; Coenzyme Q10 30 mg/day peroral in combination with Distigmine Bromide, difficult before)?
**A.** could walk easily

**Q.** And the “adverse effects in mothers, fetuses, and newborns” value (Teratogenesis test, mice)?
**A.** no adverse effects

**Q.** What about the “dead animals during the experiment” value ([5]; group not stated, spontaneous pneumonia and aspiration pneumonia due to error of administration) of the same molecule?
**A.** 4 animals

**Q.** What about the “toxicity (subacute oral)” value ([5]; rats, 5 weeks) of the same molecule?
**A.** not recognized

**Q.** And the “hematological test and biochemical test of blood and urine” value [5, 19]?
**A.** No significant change

**Q.** What about the “weight of each organ” value [5, 19] of the same molecule?
**A.** no significant change

**Q.** What about the “general condition and body weight” value ([5]; rats, 40, 200, 1000 mg/Kg/day oral, 5 weeks, vs control group) of the same molecule?
**A.** no difference

**Q.** What about the “walking and work ability” value ([6]; 30 days combination, then Ambenonium reduced to 10 mg/day for further 30 days) of the same molecule?
**A.** long distance walking and light work became possible

**Q.** What about the “symptoms after further reduction of Ambenonium” value ([6]; Ambenonium reduced to 5 mg/day) of the same molecule?
**A.** no worsening of the symptoms was caused and the patient is now getting better

**Q.** What about the “improvement in symptoms (walking, breathing)” value ([6]; Coenzyme Q10 30 mg/day peroral in combination with Ambenonium, at the start) of the same molecule?
**A.** an improvement in walking and relief in a feeling of difficulty in breathing

**Q.** And the “adverse effects in mothers, fetuses, and newborns” value (Teratogenesis test, rats)?
**A.** no adverse effects

**Q.** And the overall safety [7]?
**A.** very safe drug, without side-effects

**Q.** And the “time to muscular contraction after start of treatment” value ([8]; Coenzyme Q10 30 mg/day with Ambenonium 25 mg/day, peroral)?
**A.** 2 to 3 days

**Q.** And the “continuous walking made possible” value [8, 20]?
**A.** 400 m

**Q.** What about the “heavy feeling of the body, double vision and eye symptoms” value [8, 20] of the same molecule?
**A.** relieved

**Q.** And the “electron-microscopic observation of liver (minute structure)” value ([9]; 7th, 14th and 24th days)?
**A.** not recognized abnormal findings

**Q.** And the “macroscopical and histological observation” value ([9]; hematoxylin.Eosine staining and liver fat staining, 23 days)?
**A.** abnormalities were not recognized

**Q.** And the “hematological test and biochemical test of blood” value [9, 21]?
**A.** Abnormal findings were not obtained

**Q.** And the “weight of each organ” value [9, 21]?
**A.** no effect

**Q.** And the “general condition and increase of body weight” value ([9]; rabbits, 6, 60, 600 mg/Kg/day oral, 23 days, vs control group)?
**A.** no difference

**Q.** And the “toxicity (subacute oral)” value ([9]; rabbits, 23 days)?
**A.** not recognized

**Q.** For CC[N+](CC)(CCNC(=O)C(=O)NCC[N+](CC)(CC)Cc1ccccc1Cl)Cc1ccccc1Cl [Ambenonium], which “improvement in the symptoms” value ([6]; Ambenonium alone, 20 mg/day peroral, 4 months) is on record?
**A.** no significant improvement in the symptoms

**Q.** What about the walking ability ([8]; at first medical examination, under effect of Ambenonium, before Coenzyme Q10, barely walked) of the same molecule?
**A.** ~100 m

**Q.** Which “eye fissure, left” value ([4]; Distigmine Bromide 10 mg/day peroral plus 0.5 % eye drops, 6 months, before: left 5 mm) does the source give for CN(CCCCCCN(C)C(=O)Oc1ccc[n+](C)c1)C(=O)Oc1ccc[n+](C)c1 [Distigmine Bromide] here?
**A.** 6 mm

**Q.** What about the “eye fissure, right” value ([4]; Distigmine Bromide 10 mg/day peroral plus 0.5 % eye drops, 6 months, before: right 2 mm) of the same molecule?
**A.** 4 mm

**Q.** What about the “symptoms (eyelid drooping)” value ([4]; Distigmine Bromide peroral plus eye drops, 6 months) of the same molecule?
**A.** improved a little
